Data on three compounds can be found in US20160271114A1, “Composition for preventing or treating bacterial infectious disease comprising phospholipase D2 inhibitor” (RESEARCH & BUSINESS FOUNDATION SUNGKYUNKWAN UNIVERSITY, priority 2015, published 2016).

One assay relates to GRK2. The experiment in a line: LPS-induced GRK2 level in neutrophils (western blotting). The format is cell-based, mice. As to conditions: WT neutrophils, LPS 1 μg/ml; CAY10594 at 10 μM; FIG. 18B, FIG. 19. The method, then: First, neutrophils were isolated from the bone marrow of WT or PLD2 knockout (KO) mice and stimulated with 1 μg/ml of LPS for 1 hour, and then GRK2 levels were analyzed by western blotting.
Afterward, neutrophils isolated from the bone marrow of the WT mice were cultured with 10 μM of a vehicle (0.5% Tween 80 in PBS) or a PLD2 inhibitor (CAY10594) before being cultured with LPS (1 μg/ml), and then GRK2 levels were analyzed by western blotting.
The control of LPS-induced GRK2 expression by an inhibitor for an intracellular signaling pathway (BAY11-7082) was analyzed by western blotting.

In assay [1] the test system is neutrophils isolated from the bone marrow of WT mice. The experiment in a line: CXCL2-induced chemotactic migration of LPS-stimulated neutrophils. It is filed as cell-based. The settings on record: LPS 1 μg/ml, FIG. 20B.
In the next assay the test system is CXCR2. The experiment in a line: CXCR2 surface expression in LPS-stimulated neutrophils (flow cytometry). The settings on record: WT neutrophils, LPS 1 μg/ml; FIG. 17D, FIG. 20A. It is filed as cell-based, mice. (Flow cytometry measures light scatter and fluorescence of single cells or particles in a stream.)
Another assay concerns CLP mice. The experiment in a line: Survival rate in CLP-induced sepsis models, WT mice. The format is in vivo. The settings on record: WT mice after CLP surgery; 10 mg/kg subcutaneous at 2, 14, 26 and 38 hours; monitored for 10 days; FIG. 1B. The method, then:
(§1) C57Bl/6 mice were obtained from Orient Bio (Seongnam, Korea). PLD2 knockout (KO) mice were prepared by the method described in a previous study (Ghim, J., J. S. Moon, C. S. Lee, J. Lee, P. Song, A. Lee, J. H. Jang, D. Kim, J. H. Yoon, Y. J. Koh, C. Chelakkot, B. J. Kang, J. M. Kim, K. L. Kim, Y. R. Yang, Y. Kim, S. H. Kim, D. Hwang, P. G. Suh, G. Y. Koh, Y. Y. Kong, and S. H. Ryu, 2014, “Endothelial deletion of phospholipase D2 reduces hypoxic response and pathological angiogenesis,” Arterioscler. Thromb. Vasc. Biol., 34:1697-1703.) All experiments involving animals received the approval of the Institutional Review Committee for Animal Care and Use at the medical school of Sungkyunkwan University. Cecal ligation and puncture (CLP) sepsis models were prepared by the method described in a previous study (Kim, S. D., H. Y. Lee, J. W. Shim, H. J. Kim, Y. H. Yoo, J. S. Park, S. H. Baek, B. A. Zabel, and Y. S. Bae, 2011, “Activation of CXCR2 by extracellular matrix degradation product acetylated Pro-Gly-Pro has therapeutic effects against sepsis,” Am. J. Respir. Crit. Care Med., 184:243-251.) That is, mice were anesthetized with 50 mg/kg of Zoletil and 10 mg/kg of Rompun through intraperitoneal injection, and an abdominal midline incision was made to expose the cecum. […]

The subject of assay [2] is spleen cells isolated from the WT mice. The experiment in a line: LPS-induced inflammatory cytokine/chemokine production in spleen cells (ELISA). The format is cell-based. The settings on record: 10 μM for 30 minutes before LPS (1 μg/ml) for 24 hours; compared with vehicle; FIG. 5B. As for the experimental part: Spleen cells (3×10^6 cells/0.3 ml) isolated from WT or PLD2 knockout (KO) mice were cultured in RPMI 1640 medium containing 5% fetal bovine serum (FBS) in 96-well plates and placed in a 5% CO2 incubator at 37° C. Afterward, the spleen cells were incubated with LPS (1 μg/ml) for 24 hours, and the expression of cytokines and chemokines in the spleen cells was measured by ELISA (e-Bioscience, San Diego, Calif.).
Additionally, to examine the effect of a PLD2 inhibitor on cytokine and chemokine production, before additional culturing with LPS (1 μg/ml) for 24 hours, the spleen cells isolated from the WT mice were cultured with 10 μM of a vehicle (0.5% Tween 80 in PBS) or a PLD2 inhibitor (CAY10594) for 30 minutes. A cell-free supernatant was collected and centrifuged, and the cytokines and the chemokines were detected by ELISA (e-Bioscience, San Diego, Calif.) according to the manufacturer's instructions.
On the technique in general: ELISA stands for enzyme-linked immunosorbent assay.

The subject of a further assay is WT neutrophils. The experiment in a line: Ionomycin-induced intracellular calcium mobilization (Fura-2/AM). The format is cell-based, mice. As to conditions: 10 μM before 5 μM ionomycin, FIG. 15. The method, then:
Subsequently, for individual analysis, the cells were aliquoted (2×10^6 cells/1 ml of Locke's solution containing 154 mM NaCl, 5.6 mM KCl, 1.2 mM MgCl2, 5 mM HEPES [pH 7.3], 10 mM glucose, and 2 mM CaCl2). Afterward, the cells were stimulated with 5 μM ionomycin. Meanwhile, to check the case of the treatment with a PLD2 inhibitor, the cells aliquoted from the WT mouse were cultured with 10 μM of a vehicle (0.5% Tween 80 in PBS) or a PLD2 inhibitor (CAY10594) before being stimulated with ionomycin. A fluorescence change at an emission wavelength of 500 nm was measured using an RF-5301PC spectrofluorophotometer (Shimadzu Instruments Inc., Kyoto, Japan) at excitation wavelengths of 340 nm and 380 nm A [Ca^2+]i increase causes an increase in the fluorescence ratio at an excitation efficiency of 340 to 380 nm, and [Ca^2+]i was calculated using the fluorescence ratio according to Equation 5 of Grynkiewicz et al (Grynkiewicz et al., 1985).
On the technique in general: Calcium assays in cells follow changes in intracellular calcium, usually with a dye or a luminescent sensor.

The subject of assay [3] is neutrophils isolated from the bone marrow of the WT mice. The experiment in a line: NET formation in ionomycin-stimulated neutrophils (SYTOX Green staining). The format is cell-based. As to conditions: 10 μM, then 5 μM ionomycin, FIG. 10B. As for the experimental part:
Neutrophils were isolated from the bone marrow of the WT or PLD2 knockout (KO) mice. More particularly, bone marrow cells were isolated from a femur and a tibia using an HBSS-EDTA solvent. A cell suspension was centrifuged at 400 g for 10 minutes, resuspended cells were loaded onto 52%, 69%, and 78% Percoll gradients, and centrifuged at 1500 g for 30 minutes without breaking. The cells were isolated on a 69%/78% interface layer, and RBCs were removed by hypotonic lysis. 95% or more of the isolated cells were identified to be Ly6G-positive using a flow cytometer. The isolated neutrophils (1×10^5 cells) were seeded on 0.001% poly-lysine-coated 12-mm cover slips of 24-well plates, and stimulated with 5 μM ionomycin. Afterward, the cells were fixed with 4% paraformaldehyde and stained by SYTOX Green nucleic acid staining (5 μM). The NET was visualized using a Zeiss Axiovert fluorescent microscope (Zeiss, Oberkochen, Germany), and images were taken by a Nikon Digital camera.
Additionally, to confirm the variations of NET formation when a PLD2 inhibitor was treated, neutrophils isolated from the bone marrow of the WT mice were cultured with 10 μM of a vehicle (0.5% Tween 80 in PBS) or a PLD2 inhibitor (CAY10594), and then stimulated with 5 μM ionomycin.

Another assay deals with PLD2 knockout (KO) mice. The experiment in a line: Survival rate of PLD2 knockout (KO) mice after CLP surgery with CXCR2 antagonist treatment. The format is in vivo. As to conditions: treated with the CXCR2 antagonist, FIG. 21. As for the experimental part: as §1

Take `Cc1ccc(S(=O)(=O)/C=C/C#N)cc1` [BAY11-7082]: in the assay on GRK2, the “upregulation of LPS-induced GRK2 / LPS-induced GRK2 expression” value is given as “completely inhibited”. Moreover, in assay [1], the “CXCL2-induced chemotactic migration of the neutrophils by LPS stimulation” value was “partially but significantly recovered”. Moreover, the “downregulation of LPS-induced CXCR2” value with CXCR2 was “significantly diminished”.
Regarding `O=C(NCCN1CCC2(CC1)C(=O)NCN2c1ccccc1)c1ccc2ccccc2c1` [CAY10594, N-[2-(4-oxo-1-phenyl-1,3,8-triazaspiro[4,5]decan-8-yl)ethyl]-2-naphthalenecarboxamide], the “upregulation of LPS-induced GRK2 / LPS-induced GRK2 expression” value in the assay with GRK2 is on record as “blocked”. Also, the survival rate in the assay with CLP mice is 40%. For the same compound, in assay [2], the CCL5 secretion entry is listed as “considerably decreased”, the CXCL1 secretion entry was “considerably decreased”, the IL-1β secretion entry is given as “considerably decreased” and the IL-6 secretion entry is reported as “considerably decreased”. In addition, the TNF-α secretion entry in assay [2] was “considerably decreased”. In the assay with WT neutrophils, the “ionomycin-induced intracellular calcium mobilization” value is recorded as “improved”. In addition, in the assay on CXCR2, the “downregulation of LPS-induced CXCR2” value is “recovered”. Besides, in assay [3], the “NET formation caused by ionomycin stimulation” value was “increased”.
In the case of `O=C(Nc1ccc([N+](=O)[O-])cc1O)Nc1ccccc1Br` [SB225002], in the assay with PLD2 knockout (KO) mice, the “survival of PLD2 knockout (KO) mice after CLP surgery” value is listed as “all of the mice died”.
